Reference: US4011138A, “Process for the preparation of cholesterol esterase” (Kyowa Hakko Kogyo Co., Ltd., priority 1974, dated 1977)

Tested on: cholesterol esterase
Experiment: Substrate specificity: relative activity of cholesterol esterase on cholesterol esters
Assay type: biochemical, Pseudomonas fluorescens
Conditions: activity on cholesterol linoleate defined as 100; 37° C, 30 minutes, pH 7.5
Description: The determination of the enzyme activity on cholesterol linoleate is carried out by the following method.
A mixture having the following composition is prepared and shaken at 37° C for 30 minutes. […]
During the above-described operation, the substrate cholesterol linoleate is hydrolyzed by the action of cholesterol esterase into cholesterol and linoleic acid, and subsequently the formed cholesterol is oxidized to cholestenone by the action of cholesterol oxidase. After 30 minutes of shaking, the mixture is immediately subjected to the determination of residual unreacted cholesterol linoleate by Zurkowsky's method [Clinical Chemistry 10, 451 (1964)]. Then, the amount of the reacted cholesterol linoleate is calculated. The enzyme activity is expressed by "unit." A "unit" of enzyme activity is defined as that amount of enzyme which will decompose 1 μmole of cholesterol linoleate in 1 minute under the above-described conditions. The enzyme activities on other cholesterol esters are variable depending upon the kind of substrates and are determined in the similar manner.

| SMILES | Relative activity |
| --- | --- |
| CCCCCCCCCCCCCCCC(=O)O[C@H]1CC[C@@]2(C)C(=CC[C@H]3[C@@H]4CC[C@H]([C@H](C)CCCC(C)C)[C@@]4(C)CC[C@@H]32)C1 [Cholesterol palmitate] | 26 |
| CCCCC/C=C\C/C=C\CCCCCCCC(=O)O[C@H]1CC[C@@]2(C)C(=CC[C@H]3[C@@H]4CC[C@H]([C@H](C)CCCC(C)C)[C@@]4(C)CC[C@@H]32)C1 [Cholesterol linoleate] | 100 |
| CC(=O)O[C@H]1CC[C@@]2(C)C(=CC[C@H]3[C@@H]4CC[C@H]([C@H](C)CCCC(C)C)[C@@]4(C)CC[C@@H]32)C1 [Cholesterol acetate] | 80 |
| CCCCCCCCCCCCCCCCCC(=O)O[C@H]1CC[C@@]2(C)C(=CC[C@H]3[C@@H]4CC[C@H]([C@H](C)CCCC(C)C)[C@@]4(C)CC[C@@H]32)C1 [Cholesterol stearate] | 58 |
| CCCCCCCC/C=C\CCCCCCCC(=O)O[C@H]1CC[C@@]2(C)C(=CC[C@H]3[C@@H]4CC[C@H]([C@H](C)CCCC(C)C)[C@@]4(C)CC[C@@H]32)C1 [Cholesterol oleate] | 93 |

Tested on: cholesterol esterase
Experiment: Inhibitory effects of various substances on the enzyme activity
Assay type: biochemical, Pseudomonas fluorescens
Conditions: not given

| SMILES | activity of the enzyme inhibited by heavy metal ions |
| --- | --- |
| O=[N+]([O-])[O-].[Ag+] [AgNO3] | inhibited |
| O=S(=O)([O-])[O-].[Cu+2] [CuSO4] | inhibited |
| [Cl][Hg][Cl] [HgCl2] | inhibited |

Same assay, conditions: 0.1 ml of 4 mM solution of the substance added, kept at 37° C for 15 minutes; substrate cholesterol linoleate, 37° C for 10 minutes; ratio of residual to initial cholesterol linoleate

| Inhibition ratio (%) | SMILES |
| --- | --- |
| 0% | c1cnc2c(c1)ccc1cccnc12 [o-Phenanthroline] |
| 0% | O=C(O)CN(CCN(CC(=O)O)CC(=O)O)CC(=O)O [Ethylenediaminetetraacetic acid] |

Same assay, conditions: cholesterol esterase, 4000 µM

| SMILES | Inhibition ratio (%) |
| --- | --- |
| O=S(=O)([O-])[O-].[Fe+2] [FeSO4] | 0% |
| [Cl][Mn][Cl] [MnCl2] | 0% |
| O=[N+]([O-])[O-].[Ag+] [AgNO3] | 20% |
| c1ccc(-c2ccccn2)nc1 [2,2'-Dipyridyl] | 0% |
| O=S(=O)([O-])[O-].[Cu+2] [CuSO4] | 100% |
| [Ca+2].[Cl-].[Cl-] [CaCl2] | 0% |
| [Ba+2].[Cl-].[Cl-] [BaCl2] | 0% |
| [Cl][Hg][Cl] [HgCl2] | 100% |
| [Cl-].[Cl-].[Zn+2] [ZnCl2] | 0% |
| O=C(O)c1cc[c]([Hg][Cl])cc1 [p-Chloromercuri benzoic acid (p-CMB), p-Chloromercuri benzoic acid] | 0% |

Tested on: Pseudomonas fluorescens KY 3955 (FERM-P No. 2611) ATCC 31156
Experiment: Cholesterol esterase activity of culture filtrates with fatty acids or fatty acid esters added to the fermentation medium
Assay type: cell-based
Conditions: additive at 5 g/l in soybean meal fermentation medium, 30° C for 24 hours; None = 20

| SMILES | Activity (cholesterol esterase activity of culture filtrate) |
| --- | --- |
| CCCCC/C=C\C/C=C\CCCCCCCC(=O)O [linoleic acid] | 310 unit/l |
| CCCCCCCC/C=C\CCCCCCCC(=O)O [oleic acid] | 170 unit/l |
| CCCCCCCC/C=C\CCCCCCCC(=O)OCC(COC(=O)CCCCCCC/C=C\CCCCCCCC)OC(=O)CCCCCCC/C=C\CCCCCCCC [triolein] | 200 unit/l |
| CCCCC/C=C\C/C=C\CCCCCCCC(=O)OCC(COC(=O)CCCCCCC/C=C\C/C=C\CCCCC)OC(=O)CCCCCCC/C=C\C/C=C\CCCCC [trilinolein] | 250 unit/l |
| CCCCCCCCCCCCCCCCCC(=O)O [stearic acid] | 230 unit/l |
